Data set [1] addresses T1, recombinant full-length HSET (Homo sapiens, UniProt Q9BW19).
T1 construct: 5 nM full-length human N-terminal His-tag HSET; His-tag (N)
T1 sequence (Q9BW19 1-673): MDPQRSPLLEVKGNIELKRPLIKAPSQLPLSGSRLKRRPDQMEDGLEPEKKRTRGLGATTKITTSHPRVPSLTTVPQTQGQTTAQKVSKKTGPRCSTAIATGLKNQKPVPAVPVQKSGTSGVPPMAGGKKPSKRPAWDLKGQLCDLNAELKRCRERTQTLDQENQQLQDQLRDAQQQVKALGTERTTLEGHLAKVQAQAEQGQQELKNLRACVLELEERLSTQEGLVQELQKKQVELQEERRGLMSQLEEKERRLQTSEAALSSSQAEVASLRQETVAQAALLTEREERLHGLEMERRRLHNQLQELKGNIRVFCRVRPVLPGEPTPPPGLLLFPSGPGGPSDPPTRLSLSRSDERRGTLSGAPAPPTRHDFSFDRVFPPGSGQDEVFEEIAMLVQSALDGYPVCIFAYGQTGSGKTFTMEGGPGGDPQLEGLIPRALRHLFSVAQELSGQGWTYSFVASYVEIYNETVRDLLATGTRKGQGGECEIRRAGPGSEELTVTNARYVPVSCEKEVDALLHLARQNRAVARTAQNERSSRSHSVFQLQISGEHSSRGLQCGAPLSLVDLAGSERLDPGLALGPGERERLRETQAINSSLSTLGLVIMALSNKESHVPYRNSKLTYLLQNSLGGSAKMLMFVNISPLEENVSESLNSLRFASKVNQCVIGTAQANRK
The data set is described as follows: ADP-Glo HSET assay (500 μM ATP). The class given is biochemical. To be noted: high ATP concentration of 500 μM; single determination or mean of two. As to the method:
(§1) The HSET or Eg5 ATPase activity was measured using the ADP-Glo Kinase Assay kit (Promega, V9102). The assays were run using final concentrations of 5 nM full-length human N-terminal His-tag HSET or 4 nM GST-tagged Eg5 motor domain protein (Cytoskeleton, EG01) and an assay buffer containing 20 mM HEPES pH 6.8, 10 mM MgCl2, 0.25 mM EGTA, 0.4 mM Triton X-100, and 1 mM DTT. Preformed microtubules (Universal Biologicals Cambridge, bovine MT001-XL, or porcine MT002-XL), which were reconstituted in 15 mM PIPES pH 7, 1 mM MgCl2, and 20 μM paclitaxel, were present at a final assay concentration of 70 μg/mL. A reaction volume of 5 μL was used in Proxiplate 384 plus white assay plates (PerkinElmer, 6008280). To measure compound inhibition, 100 nL of compound dissolved in DMSO or DMSO alone was preincubated with the HSET and microtubules for 10 min before 3 μM Ultra-Pure ATP was added to start the ATPase reaction for the 3 μM ATP HSET assay. For the 500 μM ATP HSET assay, the addition of 500 μM Ultra-Pure ATP was used. For the Eg5 ATPase assay, 4.8 μM Ultra-Pure ATP was used. All reactions were incubated at 25 °C for 80 min and then stopped by the addition of 5 μL of the ADP-Glo reagent. 10 μL of Kinase Detection Reagent was then added after a further 45 min of incubation. The luminescence was read after 45 min on a PheraStar FSX plate reader (BMG Labtech). The data processing was performed using Dotmatics Studies software package. Percentage inhibition was determined based on normalization to high controls (0% inhibition, all reagents with 100 nL of DMSO alone) and low controls (100% inhibition […], without HSET). The IC50 values for each compound were determined using a four-parameter logistic curve fit of % inhibition versus concentration.
For orientation: ADP-Glo first removes unused ATP, then detects ADP through luciferase.

In data set [2] the target is T1, recombinant full-length HSET. In words: ADP-Glo HSET assay (3 μM ATP), microtubule-stimulated ATPase. The data set is classed as biochemical. To be noted: for IC50: preformed microtubules, 3 μM ATP, read-out: HSET ADP-Glo IC50. Summed up:
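His-tagged full-length HSET (5 nM) or GST-Eg5 motor domain (4 nM), with 70 μg/mL paclitaxel-stabilised microtubules in HEPES pH 6.8 buffer, was preincubated with compound for 10 min. ATP was then added (3 or 500 μM for HSET, 4.8 μM for Eg5), followed by 80 min at 25 °C and ADP-Glo luminescence. IC50 was fitted with a four-parameter logistic.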

In data set [3] the target is T2, GST-tagged Eg5 motor domain (Homo sapiens, UniProt P52732).
T2 construct: 4 nM GST-tagged Eg5 motor domain protein (Cytoskeleton, EG01); purchased Cytoskeleton EG01
T2 sequence (P52732 18-359 limits assumed): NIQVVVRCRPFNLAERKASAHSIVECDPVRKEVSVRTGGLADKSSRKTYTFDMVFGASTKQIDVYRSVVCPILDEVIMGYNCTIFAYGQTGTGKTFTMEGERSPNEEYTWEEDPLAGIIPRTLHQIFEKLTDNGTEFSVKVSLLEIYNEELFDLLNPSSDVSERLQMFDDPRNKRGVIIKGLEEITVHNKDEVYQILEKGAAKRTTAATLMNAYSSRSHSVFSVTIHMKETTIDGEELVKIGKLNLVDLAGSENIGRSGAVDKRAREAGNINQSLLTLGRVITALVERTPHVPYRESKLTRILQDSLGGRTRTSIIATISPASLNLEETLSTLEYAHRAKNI
The data set is described as follows: ADP-Glo Eg5 assay (4.8 μM ATP). The data set is classed as biochemical. To be noted: preformed microtubules, 4.8 μM ATP (Table 4). As for the experimental part: as §1

Data set [4] deals with centrosome-amplified (4NCA) DLD1 cells. In words: Multipolar spindle assay (4NCA cell line). The class given is cell-based, human. To be noted: for increase in mitotic spindle multipolarity (4NCA): centrosome-amplified (4NCA) DLD1 cell line. From the text: (§2) The cellular models consisted of chromosomally stable human colon cancer DLD1 diploid (2N) and tetraploid (4N) cells, along with tetraploid centrosome -amplified (4NCA) DLD1 cells and DLD1 HSET knockout (KO) cells. DLD1 2N and 4N cells were generated and characterized as previously described.[27],[41],[42] In order to generate 4NCA cells, we used dihydro-cytochalasin B (DCB) to transiently block cytokinesis and induce tetraploidisation and centrosome amplification in DLD1 cells. Centrosome amplification in 4NCA cells is transient and therefore they were generated from 2N cells for each run of the assay.[27] The DLD1 HSET KO cells were knockout clones generated by CRISPR and validated by sequencing to have a homozygous deletion in the KIFC1 gene.
(§3) Inhibition of HSET-mediated clustering was measured using a phenotypic assay measuring the formation of multipolar metaphase spindles in DLD1 cells with (4NCA) or without (4N) centrosome amplification. 4NCA cells were generated by treating 2N DLD1 cells with 2 μΜ DCB for 24 h, washed, and released in growth media for 24 h. 4N and 4NCA DLD1 cells were plated in 96-well ibidi μ-Clear plates (IB-89626, ibidi) with a no. 1.5 polymer coverslip bottom with optimal imaging properties. To enrich the mitotic population, cells were first treated for 3.5 h with 8 μM pro-TAME (I-440-01M, R&D system), an inhibitor of APC/C that transiently arrests cells in metaphase without affecting the structure of the spindle. Following the initial arrest, cells were treated with HSET compounds in the presence of 8 μM MG-132 (S2619, SelleckChem), a proteasome inhibitor that helps to maintain the metaphase arrest, where the number of spindle poles/cell can be optimally quantified by an automated segmentation analysis.
(§4) Cells were then fixed in methanol and stained for 3 h for mitotic pole marker aurora A (1:1000 610939 mouse anti-IAK1, BD Biosciences) and phosphorylated histone H3 (1:1500 ab47297 anti-histone H3 pS10, Abcam) as a marker of mitotic cells in 1.5% FBS in PBS. Following primary antibody treatment, cells were incubated with secondary antibodies Alexa Fluor 488 goat antimouse and Alexa Fluor 555 goat antirabbit (1:1500, A11029 and A21429, respectively, Life Technologies) together with 1 μg/mL DAPI (D9542, Sigma) in 1.5% FBS in PBS. Image acquisition was performed at 10× using the GE INCELL 2200 High Content Imaging System (Cytiva) and analyzed using the InCell Investigator software. Mitotic cells were identified by high pHH3 staining and were scored as multipolar if they had more than two mitotic spindle poles. The percentage of multipolar mitoses was calculated by dividing the number of multipolar mitoses by the total of all visible mitoses in one well of a 96-well plate (n > 100 for each replicate, two replicates per concentration point).

The subject of data set [5] is non-centrosome amplified DLD1 (4N) cells. The data set is described as follows: Multipolar spindle assay (4N cell line). The data set is classed as cell-based, human. The settings on record: for % Multipolarity above baseline @ 15 mM (4N cells) / effect on multipolar mitoses (4N), in words: 15 μM; for % Multipolarity above baseline @ 15 mM (4N cells): supplementary CSV; for effect on multipolar mitoses (4N), in words: non-centrosome amplified DLD1 (4N) cell line; for % multipolarity above baseline @ 15 μM (4N cells): 4N DLD1 cells (Table 4).
Source text: as §2, §3, §4

The subject of another data set is DLD1 cells (4NCA and 4N). The data set is classed as cell-based. To be noted: human. As for the experimental part:
as §3, §4
3. […]

The mark [6] stands for this setting: 15 μM, 4NCA DLD1 cells (Table 4).
The mark [7] stands for this setting: 15 µM, 4NCA cells, supplementary CSV.
[8] abbreviates: LE = −1.4Log(IC50 [M])/number of non-hydrogen atoms (Table 1).
Setting [9] is: LLE = −Log(IC50 [M]) – cLogP (MoKa) (Table 1).
Setting [10] is: mean (±SD) n ≥ 3, >200 from a single determination (Table 1).

On to `CCOC(=O)c1sc(NC(=O)CCNC(=O)c2cccc(-c3noc(C)n3)c2)cc1C` [Compound 26, Ethyl 3-Methyl-5-(3-(3-(5-methyl-1,2,4-oxadiazol-3-yl)benzamido)propanamido)thiophene-2-carboxylate], for which the IC50 in data set [1] is 332 nM; in data set [2] (mean (±SD) n ≥ 3 (Table 4)) it was 93 nM; in data set [2] (mean (±SD) n ≥ 3, >200 from a single determination (Table 2)) it was 93 nM; in data set [3], greater than 200000 nM. In data set [2] (LE = −1.4Log(IC50 [M])/number of non-hydrogen atoms (Table 2)), the LE turned out to be 0.32. The LLE in data set [2] (LLE = −Log(IC50 [M]) – cLogP (MoKa) (Table 2)) was 3.7. The “% multipolarity above baseline @ 15 μM (4NCA cells)” value in data set [4] (setting [6]) and in data set [4] (setting [7]) was 13% in each case. Moreover, in data set [4] (15 μM), the “increase in mitotic spindle multipolarity (4NCA)” value was roughly 10%. The “% Multipolarity above baseline @ 15 mM (4N cells)” value in data set [5] is given as 1%. In addition, in data set [5], the “effect on multipolar mitoses (4N), in words” value is reported as “no increases in multipolar mitoses”. Moreover, the “% multipolarity above baseline @ 15 μM (4N cells)” value in data set [5] stood at 1%.

For `CCCc1cc(C(=O)N[C@H](Cc2ccc(-c3cccc(OC(F)(F)F)c3)nc2)C(=O)N[C@@H]2CCNC2)sc1C` [Compound 1, 5-Methyl-6N-((R)-1-oxo-1-((R)-pyrrolidin-3-ylamino)-3-(6-(3-(trifluoromethoxy)phenyl)pyridin-3-yl)propan-2-yl)-4-propylthiophene-2-carboxamide, reference compound], the IC50 came out at 825 nM in data set [1], 171 nM in data set [2] (mean (±SD) n ≥ 3 (Table 4)), 171 nM in data set [2] (setting [10]) and 35600 nM in data set [3]. The LE in data set [2] (setting [8]) turned out to be 0.25. Besides, the LLE in data set [2] (setting [9]) is on record as 1.5. For the same compound, in the data set on DLD1 cells (4NCA and 4N), the “concentration at which cellular toxicity observed” value is listed as 6 µM.

Regarding `CCOC(=O)c1sc(NC(=O)CCNC(=O)c2cccc(-c3nnn(C)n3)c2)nc1C` [Compound 18, Ethyl 4-Methyl-2-(3-(3-(2-methyl-2H-tetrazol-5-yl)benzamido)propanamido)thiazole-5-carboxylate], the IC50 in data set [1] is 86 nM; in data set [2] (mean (±SD) n ≥ 3 (Table 4)), 27 nM; in data set [2] (setting [10]), 27 nM; in data set [3], greater than 200000 nM. In addition, the “ligand efficiency (LE)” value in data set [2] came out at 0.34. Further, the “lipophilic ligand efficiency (LLE)” value in data set [2] is on record as 5.4. In data set [2] (setting [8]), the LE is 0.34. The LLE in data set [2] (setting [9]) turned out to be 5.4. Besides, the “% multipolarity above baseline @ 15 μM (4NCA cells)” value in data set [4] (setting [6]) and in data set [4] (setting [7]) was 11% throughout. For the same compound, in data set [4] (15 μM), the “increase in mitotic spindle multipolarity (4NCA)” value is roughly 10%. Also, the “% Multipolarity above baseline @ 15 mM (4N cells)” value in data set [5] was 0%. In addition, the “effect on multipolar mitoses (4N), in words” value in data set [5] is on record as “no increases in multipolar mitoses”. The “% multipolarity above baseline @ 15 μM (4N cells)” value in data set [5] is recorded as 0%.

As a reminder, the IC50 is the point on the concentration scale where inhibition reaches its midpoint.

Source of the values: publication PMC9969401, “Discovery of 2-(3-Benzamidopropanamido)thiazole-5-carboxylate Inhibitors of the Kinesin HSET (KIFC1) and the Development of Cellular Target Engagement Probes” (Journal of Medicinal Chemistry, 2023).
